Values of other authors in article PMC10401651, “Characterization of Uranyl (UO2^2+) Ion Binding to Amyloid Beta (Aβ) Peptides: Effects on Aβ Structure and Aggregation” (ACS Chemical Neuroscience, 2023).

Target: T1, Aβ42 oligomers (Homo sapiens, UniProt P05067)
T1 construct: Synthetic lyophilized wt Aβ (1–42) peptides, abbreviated as Aβ42; purchased JPT Peptide Technologies (Germany); host or cells: synthetic peptide
Parameters: method as in PMID 36849796
Conditions: 0.05% SDS; cited from earlier work

T1 sequence (P05067 672-713 limits assumed): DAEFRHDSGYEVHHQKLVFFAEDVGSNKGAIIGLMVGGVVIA

SMILES: [Ni+2] [Ni(II) ions]
- concentration required for full disruption of homogeneous AβO0.05%SDS oligomers: 500 mM
